Test results from patent US11306098B2, “Substituted pyrrolo[1,2-a]pyrazines and pyrrolo[1,2-a][1,4]diazepines as TREX1 inhibitors” (VENENUM BIODESIGN, LLC, priority 2019, dated 2022).
Structures can show the parent of a compound that is named as a salt. Where two headings read alike, the source gives them in different places.

Assays:
[1] = target: cleaved human TREX1 (Homo sapiens (Human), UniProt Q9NSU2); assay: TREX1 Thermal Shift Binding Assay (human); settings: 100 μM compound, 5 μM TREX1
Experimental: (§1) Example B is a protein thermal shift assay used to assess the binding of TREX1 inhibitors to TREX1 protein. In this assay, TREX1 protein unfolding with increasing temperature was measured in the presence and absence of TREX1 inhibitors by following the increase in fluorescence of a thiol-reactive dye (e.g BODIPY FL-cystine) as it reacts with exposed TREX1 cysteine residues. The assay was conducted using human (SEQ ID NO: 1), or murine (SEQ ID NO: 2) TREX1 protein constructs.
(§2) The thermal shift assays used recombinant protein corresponding to human (SEQ ID NO: 1) and murine (SEQ ID NO: 2) TREX1. The protein encoding plasmid contained a N-terminal MBP (maltose binding protein) tag followed by the TREX1 coding sequence within the pMAL-c5E vector. The plasmid was transfected into a BL21 (DE3) E. coli expression strain. Protein was purified from the bacterial lysate using an Amylose resin column. The MBP tag was cleaved from the purified protein using recombinant enterokinase (EMD Millipore #69066-3). The cleaved TREX1 protein was further purified on a Q-Sepharose column followed by a heparin column.
(§3) Binding of compounds to both human and murine TREX1 were measured by protein thermal shift assays. (Huynh K, Partch C L. Current Protocols in Protein Science: Analysis of protein stability and ligand interactions by thermal shift assay. Current protocols in protein science/editorial board, John E Coligan. [et al]. 2015; 79:28.9.1-28.9.14. doi:10.1002/0471140864.ps2809s79.). Thermal shift assays were conducted in sealed 96-well PCR plates containing 5 μM TREX1 protein, 100 μM compound, and 2 μM BODIPY FL-cystine (Sigma) in either 20 μL assay buffer (20 mM Tris, 7.5, 5 mM MgCl2, 0.002% Triton X-100) or 20 μL phosphate buffered saline (PBS). Using a RT-qPCR machine (Mx3005P, Stratagene) changes in fluorescence (excitation at 492 nm and emission at 516 nm) were monitored as temperature was increased from 25° C. to 96° C. at a rate of 1° C. every 2 minutes. Tm values were calculated from the first derivative plot of fluorescence intensity versus temperature. The results shown in Table 6 indicate the examples bind to human TREX1 and murine TREX1. ND indicates assay was not done.

[2] = target: cleaved mouse TREX1 (Mus musculus (Mouse), UniProt Q91XB0); assay: TREX1 Thermal Shift Binding Assay (mouse); settings: 100 μM compound, 5 μM TREX1
Sequence of cleaved mouse TREX1 (Q91XB0 1-242): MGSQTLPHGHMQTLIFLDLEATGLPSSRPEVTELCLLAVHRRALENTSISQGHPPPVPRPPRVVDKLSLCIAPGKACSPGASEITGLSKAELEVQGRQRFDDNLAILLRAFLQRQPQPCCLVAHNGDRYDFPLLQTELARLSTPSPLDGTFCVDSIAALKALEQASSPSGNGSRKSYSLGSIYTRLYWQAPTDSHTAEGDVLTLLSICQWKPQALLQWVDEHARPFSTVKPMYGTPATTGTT
Experimental: as §1, §2, §3

[3] = target: murine TREX1 (Mus musculus (Mouse), UniProt Q91XB0); assay: TREX1 Exonuclease Assay (murine enzyme); format: biochemical; settings: murine TREX1 1 nM, FAM/BHQ1-labeled DNA oligonucleotide
Sequence of murine TREX1 (Q91XB0 1-242): as above
Experimental: (§4) The TREX1 Exonuclease assay is an exemplary in vitro assay for measuring the activity of the TREX1 inhibitors of the present invention. In this assay, TREX1 exonuclease activity was evaluated by measuring the increase in fluorescence resulting from TREX1-catalyzed removal of a quencher from the 3′ end of a FAM-labeled DNA oligonucleotide (5′FAM-CCA CGA GAG CGT-BHQ1-3′). The assay was conducted using Wild Type (WT) human or murine TREX1 enzyme constructs corresponding to amino acids 55-297 of UniProt ID Q9NSU2-1 (SEQ ID NO: 1), or amino acids 1-242 of UniProt ID Q91XB0-1 (SEQ ID NO: 2), respectively. See, e.g., Example A.
(§5) For human TREX1, the nucleotide sequence of the gene construct was codon optimized for expression in the bacterial host. The sequence was incorporated into the pMAL-c5e vector (NEB) downstream of a solubility-promoting MBP (maltose binding protein) fusion partner. The fusion protein product was expressed in E. coli strain BL21 (DE3) (Millipore) and purified in a series of chromatographic steps. Initial steps were conducted using a dextrin sepharose affinity column followed by a Q-sepharose ion exchange column (both GE Healthcare). After the second column the MBP partner was removed by incubation with enterokinase (NEB). Further purification was carried out with the second application of a Q-sepharose column followed by a Superdex 75 (GE Healthcare) size exclusion column. Finally, a heparin sepharose column (GE Healthcare) was applied to remove contaminating nucleotides. Similar methods were used in the preparation of the murine TREX1 enzyme and are described in Example B set forth below.
(§6) To evaluate the effect of compounds on TREX1 activity, test compounds were serially diluted (11-point, 3-fold) from 10 mM stock solutions and delivered to 384-well low-volume assay plates in 80 nL DMSO using an acoustic dispenser. Next, 4 μL of human TREX1 (0.5 nM), or murine TREX1 (1 nM), diluted in assay buffer (20 mM Tris pH 7.5, 5 mM MgCl2, 100 μg/mL BSA, 0.002% Triton X-100, 2 mM DTT), was added to the assay plate. After incubating for 30 minutes, 4 μL of labeled DNA oligonucleotide (500 nM) in assay buffer was added to initiate TREX1 exonuclease activity. The reaction was allowed to proceed for 45 minutes at room temperature prior to the addition of 4 μL of 150 mM EDTA to halt TREX1 activity. Assay plates were equilibrated for an additional 30 minutes and read on an EnVision Plate Reader (Perkin Elmer) to measure fluorescence emission at 535 nm following excitation at 485 nm. Fluorescence was plotted as a function of log molar compound concentration and fit to four-parameter dose-response equation to determine compound IC50.

[4] = target: human TREX1 (Homo sapiens (Human), UniProt Q9NSU2); assay: TREX1 Exonuclease Assay (human enzyme); format: biochemical; settings: human TREX1 0.5 nM, FAM/BHQ1-labeled DNA oligonucleotide
Sequence of human TREX1 (Q9NSU2 1-242): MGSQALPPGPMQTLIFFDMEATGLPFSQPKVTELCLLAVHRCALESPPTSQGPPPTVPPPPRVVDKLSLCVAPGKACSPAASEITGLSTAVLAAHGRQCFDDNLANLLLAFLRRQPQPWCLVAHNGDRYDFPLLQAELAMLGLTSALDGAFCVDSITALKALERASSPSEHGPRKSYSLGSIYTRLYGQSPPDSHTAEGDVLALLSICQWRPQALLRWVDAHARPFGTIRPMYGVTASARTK
Experimental: as §4, §5, §6

[5] = PBS, read-out: Thermal shift cleaved human TREX1, (ΔTm ° C.) PBS
[6] = assay buffer, read-out: Thermal shift cleaved human TREX1, (ΔTm ° C.) Assay buffer
[7] = PBS, read-out: Thermal shift cleaved mouse TREX1, (ΔTm ° C.) PBS
[8] = assay buffer, read-out: Thermal shift cleaved mouse TREX1, (ΔTm ° C.) Assay buffer

Sequence of cleaved human TREX1 (Q9NSU2 1-242): as above

| Structure (SMILES) | ΔTm at 100 µM [1, 5] [°C] | ΔTm at 100 µM [1, 6] [°C] | ΔTm at 100 µM [2, 7] [°C] | ΔTm at 100 µM [2, 8] [°C] | IC50 [3] [µM] | IC50 [4] [µM] |
| --- | --- | --- | --- | --- | --- | --- |
| CC(C)C[C@H](C(=O)NCc1ccc(Cl)c(Cl)c1)N1CCC(CCc2ccccc2)N2C[C@H](N)C[C@H]2C1=O (stereo partly drawn) [Example 1, (2R)-2-((8R,9aS)-8-amino-1-oxo-5-phenethylhexahydro-1H-pyrrolo[1,2-a][1,4]diazepin-2(3H)-yl)-N-(3,4-dichlorobenzyl)-4-methylpentanamide.HCl] | > 8 | > 8 | 4 to 8 | 4 to 8 | – | – |
| CC(C)C[C@H](C(=O)NCc1ccccc1)N1CCC(CCc2ccccc2)N2C[C@H](N)C[C@H]2C1=O (stereo partly shown) [Example 8] | – | – | – | – | 10 to 100 | 1 to 9.99 |
| Cc1ccc(CNC(=O)[C@@H](CC(C)C)N2CCC(CCc3ccccc3)N3C[C@H](N)C[C@H]3C2=O)cc1 (stereo partly shown) [Example 9] | – | – | – | – | 1 to 9.99 | 1 to 9.99 |
| CC(C)C[C@H](C(=O)NCc1ccc(Cl)c(Cl)c1)N1CCC(CS(=O)(=O)c2ccccc2)N2C[C@H](N)C[C@H]2C1=O (stereo partly shown) [Example 41] | – | – | – | – | 10 to 100 | 1 to 9.99 |
| CC(C)C[C@H](C(=O)NCc1ccc(C#N)cc1)N1CCC(CCc2ccccc2)N2C[C@H](N)C[C@H]2C1=O (stereo partly shown) [Example 32] | – | – | – | – | 10 to 100 | 1 to 9.99 |
| CC(C)C[C@H](C(=O)NCc1ccc(C(F)(F)F)cc1)N1CCC(CCc2ccccc2)N2C[C@H](N)C[C@H]2C1=O (stereo partly shown) [Example 6] | – | – | – | – | < 1 | < 1 |
| CC(C)C[C@H](C(=O)NCC1CCCCC1)N1CCC(CCc2ccccc2)N2C[C@H](N)C[C@H]2C1=O (stereo partly shown) [Example 12] | – | – | – | – | 10 to 100 | 10 to 100 |
| CC(C)C[C@H](C(=O)NS(=O)(=O)c1ccc(Cl)c(Cl)c1)N1CCC(CCc2ccccc2)N2C[C@H](N)C[C@H]2C1=O (stereo partly shown) [Example 39] | – | – | – | – | < 1 | < 1 |
| CC(C)C[C@H](C(=O)NCc1ccc(Cl)c(Cl)c1)N1CCC(COc2ccccc2)N2C[C@H](N)C[C@H]2C1=O (stereo partly shown) [Example 19] | – | – | – | – | 1 to 9.99 | < 1 |
| CC(C)C[C@H](C(=O)NCc1cccc(Cl)c1)N1CCC(CCc2ccccc2)N2C[C@H](N)C[C@H]2C1=O (stereo partly shown) [Example 26] | – | – | – | – | 1 to 9.99 | < 1 |
| CC(C)C[C@H](C(=O)NCc1ccc(Cl)c(Cl)c1)N1CCC(CCc2ccc(Cl)cc2)N2C[C@H](N)C[C@H]2C1=O (stereo partly shown) [Example 11] | – | – | – | – | 1 to 9.99 | < 1 |
| CC(C)C[C@H](C(=O)NCc1cc(Cl)cc(Cl)c1)N1CCC(CCc2ccccc2)N2C[C@H](N)C[C@H]2C1=O (stereo partly shown) [Example 33] | – | – | – | – | 1 to 9.99 | < 1 |
| N[C@@H]1C[C@H]2C(=O)N([C@H](CCC(=O)O)C(=O)NCc3ccc(Cl)c(Cl)c3)CCC(CCc3ccccc3)N2C1 (stereo partly shown) [Example 14A] | – | – | – | – | 10 to 100 | 10 to 100 |
| C[C@H](C(=O)NCc1ccc(C(F)(F)F)cc1)N1CCC(CCc2ccccc2)N2C[C@H](N)C[C@H]2C1=O (stereo partly shown) [Example 5] | – | – | – | – | < 1 | < 1 |
| CCC[C@H](CNS(=O)(=O)c1ccc(Cl)c(Cl)c1)N1CCC(CCc2ccccc2)N2C[C@H](N)C[C@H]2C1=O (stereo partly shown) [Example 40] | – | – | – | – | 1 to 9.99 | < 1 |
| CC(C)C[C@H](C(=O)N[C@@H](C)c1ccccc1)N1CCC(CCc2ccccc2)N2C[C@H](N)C[C@H]2C1=O (stereo partly shown) [Example 25] | – | – | – | – | 10 to 100 | 10 to 100 |
| N[C@@H]1C[C@H]2C(=O)N([C@H](CCC(=O)O)C(=O)NCc3ccc(Cl)c(Cl)c3)CCC(COc3ccccc3)N2C1 (stereo partly shown) [Example 17] | – | – | – | – | < 1 | < 1 |
| N[C@@H]1C[C@H]2C(=O)N([C@H](CO)C(=O)NCc3ccc(Cl)c(Cl)c3)CCC(CCc3ccccc3)N2C1 (stereo partly drawn) [Example 3, (2R)-2-((8R,9aS)-8-amino-1-oxo-5-phenethylhexahydro-1H-pyrrolo[1,2-a][1,4]diazepin-2(3H)-yl)-N-(3,4-dichlorobenzyl)-3-hydroxypropanamide.HCl] | > 8 | > 8 | 4 to 8 | 4 to 8 | – | – |
| CC(C)C[C@H](C(=O)NCc1ccc(Cl)c(Cl)c1)N1CCC(CSc2ccccc2)N2C[C@H](N)C[C@H]2C1=O (stereo partly shown) [Example 18] | – | – | – | – | < 1 | < 1 |
| CC(C)C[C@H](C(=O)NCc1ccc(Cl)c(Cl)c1)N1CCC(Cc2ccccc2)N2C[C@H](N)C[C@H]2C1=O (stereo partly shown) [Example 10] | – | – | – | – | 1 to 9.99 | 1 to 9.99 |
| CC(C)C[C@H](C(=O)N(C)Cc1ccc(C(F)(F)F)cc1)N1CCC(CCc2ccccc2)N2C[C@H](N)C[C@H]2C1=O (stereo partly shown) [Example 7] | – | – | – | – | 1 to 9.99 | 1 to 9.99 |
| N[C@@H]1C[C@H]2C(=O)N([C@H](Cc3ccc(O)cc3)C(=O)NCc3ccc(Cl)c(Cl)c3)CCC(CCc3ccccc3)N2C1 (stereo partly shown) [Example 4] | > 8 | > 8 | 4 to 8 | 4 to 8 | < 1 | < 1 |
| N[C@@H]1C[C@H]2C(=O)N([C@H](CCC(=O)O)C(=O)NCc3ccc(C(F)(F)F)cc3)CCC(CCc3ccccc3)N2C1 (single isomer, unassigned) [Example 2B] | > 8 | > 8 | 4 to 8 | 4 to 8 | < 1 | < 1 |
